Source: US10149837B2, “Selective agonists of beta-adrenergic type 3 receptors (BAR3) and use thereof” (UNIVERSITA' DEGLI STUDI DI BARI, priority 2015, dated 2018)
“Also recorded” adds a separate entry of the source.

Experiments:
[1] = system: conditional knockout mice for AVPR2; experiment: diuresis and urine osmolality in the animal model of X-linked nephrogenic diabetes insipidus (metabolic cage); type: in vivo
Protocol: At one hour from the injection of the compound, the diuresis of the treated mice is set to zero compared to control animals.
In the mouse affected by nephrogenic diabetes insipidus (X-NDI) for conditional deletion of the AVPR2 receptor, the compound BRL37344 has been administered by intraperitoneal injection at the dosage of 0.6 mg/Kg. Five animals received the compound whereas as many control animals received the vehicle only (physiological saline). The cumulative diuresis has been measured in metabolic cage in both animal groups.
The data obtained are in line with a transient effect induced by the stimulation of the renal BAR3 receptors by BRL37344.

AQP2 = experiment: kidney slices: AQP2 localisation by confocal laser scanning after stimulation; type: cell-based, mice; conditions: slices of vital tissue from murine C57BL-6 kidneys, 45 minutes of stimulation
Protocol: By the technique of “kidney slices”, thin slices of vital tissue from murine C57BL-6 kidneys have been obtained which, maintained in culture medium and appropriate atmosphere, have been stimulated with agonists able to increase the intracellular levels of cAMP (forskolin and vasopressin) and with the agonist of murine BRL37344 BAR3. After 45 minutes of stimulation the tissues have been fixed, marked for AQP2 and observed by confocal laser scanning.

[2] = X-NDI animal model, summary statement, no time point
[3] = X-NDI mice, 0.6 mg/Kg intraperitoneal, second hour after injection, vs control group, acetic acid sodium hydrate, 0.6 mg/kg

Question: For C[C@H](Cc1ccc(OCC(=O)O)cc1)NC[C@H](O)c1cccc(Cl)c1.O.[Na] (relative stereo) [BRL37344, (±)-(R*,R*)-[4-[2-[[2-(3-Chlorophenyl)-2-hydroxyethyl]amino]propyl]phenoxy] acetic acid sodium hydrate], which diuresis [1, 2] is on record?
Answer: drastic reduction of diuresis

Question: And the urine osmolality [1, 2]?
Answer: increase of urine osmolality

Question: And the cumulative diuresis ([1]; X-NDI mice, 0.6 mg/Kg intraperitoneal, end of third hour after injection, vs control group, acetic acid sodium hydrate, 0.6 mg/kg)?
Answer: still drastically reduced; also recorded: still remained statistically lower than that of the control group

Question: What about the cumulative diuresis ([1]; X-NDI mice, 0.6 mg/Kg intraperitoneal, first hour after injection, vs control group) of the same compound?
Answer: set to zero

Question: And the cumulative diuresis [1, 3]?
Answer: drastically reduced; also recorded: statistically reduced compared to the control group

Question: What about the urine osmolality [1, 3] of the same compound?
Answer: significantly increased

Question: What about the urine osmolality ([1]; X-NDI mice, 0.6 mg/Kg intraperitoneal, third hour after injection, vs control group, acetic acid sodium hydrate, 0.6 mg/kg) of the same compound?
Answer: tendency to increase although not statistically significant; also recorded: on average higher although not statistically different from that of the control group

Question: And the “apical membrane expression (repositioning) of AQP2” value (AQP2; acetic acid sodium hydrate)?
Answer: able to increase the apical levels of AQP2 with an effect comparable to that produced by vasopressin; also recorded: determines a repositioning of the marking of AQP2 on the apical membrane

Question: NC(=O)CC[C@@H]1NC(=O)[C@H](Cc2ccccc2)NC(=O)[C@H](Cc2ccc(O)cc2)NC(=O)[C@@H](N)CSSC[C@@H](C(=O)N2CCC[C@H]2C(=O)N[C@@H](CCCN=C(N)N)C(=O)NCC(N)=O)NC(=O)[C@H](CC(N)=O)NC1=O [Vasopressin, vasopressin] was tested. Which “apical membrane expression (repositioning) of AQP2” value (AQP2) did it give?
Answer: translocates AQP2 on the apical membrane of the tubular cells
